Data as given in patent US9980943B2, “Methods of treating muscular dystrophy” (BOARD OF REGENTS OF THE NEVADA SYSTEM OF HIGHER EDUCATION, …, priority 2013, dated 2018).

Legend:
Type in all cases: cell-based, mouse
[1] = tested on: β-galactosidase in CMV-LacZ C2C12 myoblasts; test: CMV-LacZ secondary screen in C2C12 myoblasts (β-Gal stabilizing assay); details: for CMV-LACZ in Myoblasts (β-galactosidase activity relative to DMSO): CMV-LacZ C2C12 myoblasts; for CMV-LACZ in Myoblasts, value relative to DMSO: SU9516 analogs, C2C12 CMV-LacZ, N=2
Outline: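 First, C2C12 myoblasts were transfected with a linearized CMV-LACZ vector and clonal lines selected by FDG β-gal assay. Then cells were exposed to compounds at 0.5, 1, 5, 10, 20 and 40 μM in 96-well format, two replicates each, and β-gal measured.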

[2] = tested on: α7 integrin (LacZ reporter in α7+/LacZ myotubes); test: Myotube α7 integrin FDG assay (Burkin assay in myotubes, 96-well); details: for Burkin Assay in Myotubes, value relative to DMSO: SU9516 analogs, 96-well, N=3-6
[3] = tested on: β-galactosidase in CMV-LacZ C2C12 myotubes; test: CMV-LacZ secondary screen in C2C12 myotubes (β-Gal stabilizing assay); details: for CMV-LACZ in Myotubes, signal relative to DMSO: C2C12 CMV-LacZ myotubes, fold relative to DMSO; for CMV-LACZ in Myotubes, value relative to DMSO: SU9516 analogs, C2C12 CMV-LacZ, N=2
Outline: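 β-gal stabilization was measured in C2C12 myoblasts or myotubes stably transfected with a CMV-driven LacZ construct, using the FDG β-gal assay. Compounds were tested in dose-response at 0.5, 1, 5, 10, 20 and 40 μM, with two replicates per point.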

[4] = tested on: α7 integrin (LacZ reporter in α7βgal+/− myoblasts); test: Myoblast α7+/LacZ integrin FDG assay (Burkin assay in myoblasts, 96-well); details: 96-well; for Burkin Assay in Myoblasts, signal relative to DMSO: α7+/LacZ myoblasts; for Burkin Assay in Myoblasts, value relative to DMSO: SU9516 analogs, N=3-6

COc1cc(NC(=O)OCc2ccccc2)c2ncccc2c1 [MLS002667707-01]
CMV-LACZ in Myoblasts (β-galactosidase activity relative to DMSO) ([1]; 0.5 uM): 1.1434 | CMV-LACZ in Myoblasts (β-galactosidase activity relative to DMSO) ([1]; 1 uM): 0.6763 | CMV-LACZ in Myoblasts (β-galactosidase activity relative to DMSO) ([1]; 5 uM): 1.1897 | CMV-LACZ in Myoblasts (β-galactosidase activity relative to DMSO) ([1]; 10 uM): 1.0803 | CMV-LACZ in Myoblasts (β-galactosidase activity relative to DMSO) ([1]; 20 uM): 1.0044 | CMV-LACZ in Myoblasts (β-galactosidase activity relative to DMSO) ([1]; 40 uM): 1.1226 | Burkin Assay in Myotubes, α7 integrin LacZ reporter signal relative to DMSO ([2]; 0.5 uM): 0.9955 | Burkin Assay in Myotubes, α7 integrin LacZ reporter signal relative to DMSO ([2]; 1 uM): 1.01 | Burkin Assay in Myotubes, α7 integrin LacZ reporter signal relative to DMSO ([2]; 5 uM): 0.8939 | Burkin Assay in Myotubes, α7 integrin LacZ reporter signal relative to DMSO ([2]; 10 uM): 0.954 | Burkin Assay in Myotubes, α7 integrin LacZ reporter signal relative to DMSO ([2]; 20 uM): 0.8049 | Burkin Assay in Myotubes, α7 integrin LacZ reporter signal relative to DMSO ([2]; 40 uM): 0.7617 | CMV-LACZ in Myotubes, signal relative to DMSO ([3]; 0.5 uM): 0.8905 | CMV-LACZ in Myotubes, signal relative to DMSO ([3]; 1 uM): 1.0590 | CMV-LACZ in Myotubes, signal relative to DMSO ([3]; 5 uM): 0.9449 | CMV-LACZ in Myotubes, signal relative to DMSO ([3]; 10 uM): 1.0227 | CMV-LACZ in Myotubes, signal relative to DMSO ([3]; 20 uM): 1.1576 | CMV-LACZ in Myotubes, signal relative to DMSO ([3]; 40 uM): 1.1071 | Burkin Assay in Myoblasts, signal relative to DMSO ([4]; 0.5 uM): 1.0156 | Burkin Assay in Myoblasts, signal relative to DMSO ([4]; 1 uM): 0.9172 | Burkin Assay in Myoblasts, signal relative to DMSO ([4]; 5 uM): 1.02 | Burkin Assay in Myoblasts, signal relative to DMSO ([4]; 10 uM): 1.235 | Burkin Assay in Myoblasts, signal relative to DMSO ([4]; 20 uM): 0.9347 | Burkin Assay in Myoblasts, signal relative to DMSO ([4]; 40 uM): 0.8314

Cc1ccccc1S(=O)(=O)N1C[C@H]2CON(C)[C@H]2C[C@H]1c1cccc(-c2ccccc2)c1 [MLS002694363-01]
CMV-LACZ in Myoblasts (β-galactosidase activity relative to DMSO) ([1]; 0.5 uM): 1.1110 | CMV-LACZ in Myoblasts (β-galactosidase activity relative to DMSO) ([1]; 1 uM): 1.2840 | CMV-LACZ in Myoblasts (β-galactosidase activity relative to DMSO) ([1]; 5 uM): 0.7616 | CMV-LACZ in Myoblasts (β-galactosidase activity relative to DMSO) ([1]; 10 uM): 1.0392 | CMV-LACZ in Myoblasts (β-galactosidase activity relative to DMSO) ([1]; 20 uM): 1.0123 | CMV-LACZ in Myoblasts (β-galactosidase activity relative to DMSO) ([1]; 40 uM): 0.5698 | Burkin Assay in Myotubes, α7 integrin LacZ reporter signal relative to DMSO ([2]; 0.5 uM): 0.9909 | Burkin Assay in Myotubes, α7 integrin LacZ reporter signal relative to DMSO ([2]; 1 uM): 1.01 | Burkin Assay in Myotubes, α7 integrin LacZ reporter signal relative to DMSO ([2]; 5 uM): 0.9178 | Burkin Assay in Myotubes, α7 integrin LacZ reporter signal relative to DMSO ([2]; 10 uM): 0.8787 | Burkin Assay in Myotubes, α7 integrin LacZ reporter signal relative to DMSO ([2]; 20 uM): 0.6694 | Burkin Assay in Myotubes, α7 integrin LacZ reporter signal relative to DMSO ([2]; 40 uM): 0.4108 | CMV-LACZ in Myotubes, signal relative to DMSO ([3]; 0.5 uM): 1.0695 | CMV-LACZ in Myotubes, signal relative to DMSO ([3]; 1 uM): 1.1800 | CMV-LACZ in Myotubes, signal relative to DMSO ([3]; 5 uM): 1.1420 | CMV-LACZ in Myotubes, signal relative to DMSO ([3]; 10 uM): 0.9775 | CMV-LACZ in Myotubes, signal relative to DMSO ([3]; 20 uM): 0.9870 | CMV-LACZ in Myotubes, signal relative to DMSO ([3]; 40 uM): 0.7460 | Burkin Assay in Myoblasts, signal relative to DMSO ([4]; 0.5 uM): 1.062 | Burkin Assay in Myoblasts, signal relative to DMSO ([4]; 1 uM): 1.061 | Burkin Assay in Myoblasts, signal relative to DMSO ([4]; 5 uM): 1.045 | Burkin Assay in Myoblasts, signal relative to DMSO ([4]; 10 uM): 1.09 | Burkin Assay in Myoblasts, signal relative to DMSO ([4]; 20 uM): 0.7581 | Burkin Assay in Myoblasts, signal relative to DMSO ([4]; 40 uM): 0.7066

COc1ccc2c(c1)/C(=C\c1cccc(/C=C3/C(=O)Nc4ccc(OC)cc43)n1)C(=O)N2 [MLS002702497-01]
CMV-LACZ in Myoblasts, value relative to DMSO ([1]; 0.5 uM): 0.8643 | CMV-LACZ in Myoblasts, value relative to DMSO ([1]; 1 uM): 1.0213 | CMV-LACZ in Myoblasts, value relative to DMSO ([1]; 5 uM): 2.6344 | CMV-LACZ in Myoblasts, value relative to DMSO ([1]; 10 uM): 3.6076 | CMV-LACZ in Myoblasts, value relative to DMSO ([1]; 20 uM): 0.2593 | CMV-LACZ in Myoblasts, value relative to DMSO ([1]; 40 uM): 0.2779 | Burkin Assay in Myotubes, value relative to DMSO ([2]; 0.5 uM): 0.8414 | Burkin Assay in Myotubes, value relative to DMSO ([2]; 1 uM): 0.749 | Burkin Assay in Myotubes, value relative to DMSO ([2]; 5 uM): 0.7692 | Burkin Assay in Myotubes, value relative to DMSO ([2]; 10 uM): 0.7814 | Burkin Assay in Myotubes, value relative to DMSO ([2]; 20 uM): 0.4567 | Burkin Assay in Myotubes, value relative to DMSO ([2]; 40 uM): 0.3839 | CMV-LACZ in Myotubes, value relative to DMSO ([3]; 0.5 uM): 1.1181 | CMV-LACZ in Myotubes, value relative to DMSO ([3]; 1 uM): 2.2829 | CMV-LACZ in Myotubes, value relative to DMSO ([3]; 5 uM): 7.0726 | CMV-LACZ in Myotubes, value relative to DMSO ([3]; 10 uM): 6.3598 | CMV-LACZ in Myotubes, value relative to DMSO ([3]; 20 uM): 0.6520 | CMV-LACZ in Myotubes, value relative to DMSO ([3]; 40 uM): 0.6550 | Burkin Assay in Myoblasts, value relative to DMSO ([4]; 0.5 uM): 0.7804 | Burkin Assay in Myoblasts, value relative to DMSO ([4]; 1 uM): 0.5545 | Burkin Assay in Myoblasts, value relative to DMSO ([4]; 5 uM): 0.175 | Burkin Assay in Myoblasts, value relative to DMSO ([4]; 10 uM): 0.1888 | Burkin Assay in Myoblasts, value relative to DMSO ([4]; 20 uM): 0.05588 | Burkin Assay in Myoblasts, value relative to DMSO ([4]; 40 uM): 0.04886
